Results reported in patent US10485235B2, “Aryloxypyrimidinyl ethers as herbicides” (FMC Corporation, priority 2015, dated 2019).

Tests used:
Assay type in all cases: in vivo
[1] = tested on: barnyardgrass (Echinochloa crus-galli); assay: Test A postemergence, barnyardgrass; conditions: postemergence, 0 to 100 scale, 0 is no effect, 100 is complete control, approximately 10 days
Method in brief: (§1)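 Plants grown in pots of loam blended with sand were treated either before emergence, via directed soil spray, or after emergence at the one- to two-leaf stage. Following about 10 days in the greenhouse, each treatment was visually compared with untreated controls and rated from 0 (no effect) to 100 (complete control).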

[2] = tested on: ragweed (common ragweed, Ambrosia elatior); assay: Test A preemergence, ragweed; conditions: Preemergence, 0 to 100 scale (0 no effect, 100 complete control)
Method in brief: as §1

[3] = tested on: ryegrass, Italian (Italian ryegrass, Lolium multiflorum); assay: Test A preemergence, Italian ryegrass; conditions: Preemergence, 0 to 100 scale (0 no effect, 100 complete control)
Method in brief: as §1

[4] = tested on: sedge, umbrella (small-flower umbrella sedge, Cyperus difformis); assay: Test B flooded paddy test, umbrella sedge; conditions: 250 g ai/ha, Flood; visual rating after 13 to 15 days; scale 0 to 100, 0 is no effect, 100 is complete control
Method in brief: (§2)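 Plants grown to the 2-leaf stage; pots flooded to 3 cm above soil and compounds applied directly into the paddy water, depth held throughout. After 13 to 15 days in the greenhouse, injury was rated visually against untreated controls on a 0–100 scale (0 no effect, 100 complete control).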

[5] = tested on: barnyardgrass (Echinochloa crus-galli); assay: Test A preemergence, barnyardgrass; conditions: Preemergence, 0 to 100 scale (0 no effect, 100 complete control)
Method in brief: as §1

[6] = tested on: ducksalad (Heteranthera limosa); assay: Test B flooded paddy test, ducksalad; conditions: 250 g ai/ha, Flood; visual rating after 13 to 15 days; scale 0 to 100, 0 is no effect, 100 is complete control
Method in brief: as §2

kochia (Kochia scoparia) [7] = assay: Test A postemergence, kochia; conditions: postemergence, 0 to 100 scale, 0 is no effect, 100 is complete control, approximately 10 days
Method in brief: as §1

rice (Oryza sativa) = assay: Test B flooded paddy test, rice; conditions: 250 g ai/ha, Flood; visual rating after 13 to 15 days; scale 0 to 100, 0 is no effect, 100 is complete control
Method in brief: as §2

[8] = tested on: pigweed (Amaranthus retroflexus); assay: Test A preemergence, pigweed; conditions: Preemergence, 0 to 100 scale (0 no effect, 100 complete control)
Method in brief: as §1

kochia (Kochia scoparia) [9] = assay: Test A preemergence, kochia; conditions: Preemergence, 0 to 100 scale (0 no effect, 100 complete control)
Method in brief: as §1

[10] = tested on: pigweed (Amaranthus retroflexus); assay: Test A postemergence, pigweed; conditions: postemergence, 0 to 100 scale, 0 is no effect, 100 is complete control, approximately 10 days
Method in brief: as §1

[11] = tested on: foxtail, giant (giant foxtail, Setaria faberii); assay: Test A postemergence, giant foxtail; conditions: postemergence, 0 to 100 scale, 0 is no effect, 100 is complete control, approximately 10 days
Method in brief: as §1

corn (Zea mays) = assay: Test A postemergence, corn; conditions: postemergence, 0 to 100 scale, 0 is no effect, 100 is complete control, approximately 10 days
Method in brief: as §1

[12] = tested on: ragweed (common ragweed, Ambrosia elatior); assay: Test A postemergence, ragweed; conditions: postemergence, 0 to 100 scale, 0 is no effect, 100 is complete control, approximately 10 days
Method in brief: as §1

[13] = tested on: blackgrass (Alopecurus myosuroides); assay: Test A postemergence, blackgrass; conditions: postemergence, 0 to 100 scale, 0 is no effect, 100 is complete control, approximately 10 days
Method in brief: as §1

[14] = tested on: wheat (Triticum aestivum); assay: Test A postemergence, wheat; conditions: postemergence, 0 to 100 scale, 0 is no effect, 100 is complete control, approximately 10 days
Method in brief: as §1

[15] = tested on: ryegrass, Italian (Italian ryegrass, Lolium multiflorum); assay: Test A postemergence, Italian ryegrass; conditions: postemergence, 0 to 100 scale, 0 is no effect, 100 is complete control, approximately 10 days
Method in brief: as §1

[16] = tested on: galium (catchweed bedstraw, Galium aparine); assay: Test A postemergence, galium; conditions: postemergence, 0 to 100 scale, 0 is no effect, 100 is complete control, approximately 10 days
Method in brief: as §1

[17] = tested on: foxtail, giant (giant foxtail, Setaria faberii); assay: Test A preemergence, giant foxtail; conditions: Preemergence, 0 to 100 scale (0 no effect, 100 complete control)
Method in brief: as §1

[18] = tested on: barnyardgrass (Echinochloa crus-galli); assay: Test B flooded paddy test, barnyardgrass; conditions: 250 g ai/ha, Flood; visual rating after 13 to 15 days; scale 0 to 100, 0 is no effect, 100 is complete control
Method in brief: as §2

Structure (SMILES)	Plant response rating, Barnyardgrass ([1]; 125 g ai/ha)	Plant response rating, Ragweed ([2]; 125 g ai/ha)	Plant response rating, Ryegrass, Italian ([3]; 125 g ai/ha)	Plant response rating, Sedge, Umbrella [4]	Plant response rating, Barnyardgrass ([5]; 125 g ai/ha)	Plant response rating, Ducksalad [6]	Plant response rating, Kochia (kochia (Kochia scoparia) [7]; 125 g ai/ha)	Plant response rating, Rice (rice (Oryza sativa))	Plant response rating, Pigweed ([8]; 125 g ai/ha)	Plant response rating, Kochia (kochia (Kochia scoparia) [9]; 125 g ai/ha)	Plant response rating, Pigweed ([10]; 125 g ai/ha)	Plant response rating, Foxtail, Giant ([11]; 125 g ai/ha)	Plant response rating, Corn (corn (Zea mays); 125 g ai/ha)	Plant response rating, Ragweed ([12]; 125 g ai/ha)	Plant response rating, Blackgrass ([13]; 125 g ai/ha)	Plant response rating, Wheat ([14]; 125 g ai/ha)	Plant response rating, Ryegrass, Italian ([15]; 125 g ai/ha)	Plant response rating, Galium ([16]; 125 g ai/ha)	Plant response rating, Foxtail, Giant ([17]; 125 g ai/ha)	Plant response rating, Barnyardgrass [18]	also measured
FC(F)(F)c1ccc(COc2c(Br)cccc2Oc2ncc(Cl)cn2)cc1 [Compound 19]	0	0	0	0	0	0	10	0	0	0	20	0	10	10	0	0	0	0	10	0	Plant response rating, Barnyardgrass ([1]; 500 g ai/ha): 20; Plant response rating, Ragweed ([2]; 500 g ai/ha): 0; Plant response rating, Ryegrass, Italian ([3]; 500 g ai/ha): 20; Plant response rating, Barnyardgrass ([5]; 500 g ai/ha): 60; Plant response rating, Kochia (kochia (Kochia scoparia) [7]; 500 g ai/ha): 50; Plant response rating, Pigweed ([8]; 500 g ai/ha): 0; Plant response rating, Kochia (kochia (Kochia scoparia) [9]; 500 g ai/ha): 0; Plant response rating, Pigweed ([10]; 500 g ai/ha): 100; Plant response rating, Foxtail, Giant ([11]; 500 g ai/ha): 20; Plant response rating, Corn (corn (Zea mays); 500 g ai/ha): 30; Plant response rating, Ragweed ([12]; 500 g ai/ha): 20; Plant response rating, Blackgrass ([13]; 500 g ai/ha): 10; Plant response rating, Wheat ([14]; 500 g ai/ha): 20; Plant response rating, Ryegrass, Italian ([15]; 500 g ai/ha): 0; Plant response rating, Galium ([16]; 500 g ai/ha): 30; Plant response rating, Foxtail, Giant ([17]; 500 g ai/ha): 90
N#Cc1cccc(Oc2ncc(Cl)cn2)c1OCc1ccc(C(F)(F)F)cc1 [Compound 20]	10	0	0	0	20	0	50	0	30	0	90	10	10	20	0	10	0	30	90	0	Plant response rating, Barnyardgrass ([1]; 500 g ai/ha): 30; Plant response rating, Ragweed ([2]; 500 g ai/ha): 0; Plant response rating, Ryegrass, Italian ([3]; 500 g ai/ha): 20; Plant response rating, Barnyardgrass ([5]; 500 g ai/ha): 30; Plant response rating, Kochia (kochia (Kochia scoparia) [7]; 500 g ai/ha): 100; Plant response rating, Pigweed ([8]; 500 g ai/ha): 100; Plant response rating, Kochia (kochia (Kochia scoparia) [9]; 500 g ai/ha): 50; Plant response rating, Pigweed ([10]; 500 g ai/ha): 90; Plant response rating, Foxtail, Giant ([11]; 500 g ai/ha): 30; Plant response rating, Corn (corn (Zea mays); 500 g ai/ha): 20; Plant response rating, Ragweed ([12]; 500 g ai/ha): 30; Plant response rating, Blackgrass ([13]; 500 g ai/ha): 20; Plant response rating, Wheat ([14]; 500 g ai/ha): 10; Plant response rating, Ryegrass, Italian ([15]; 500 g ai/ha): 20; Plant response rating, Galium ([16]; 500 g ai/ha): 80; Plant response rating, Foxtail, Giant ([17]; 500 g ai/ha): 100
N#Cc1cccc(Oc2ncc(Cl)cn2)c1OCc1cccc(Cl)c1 [Compound 21]	10	0	0	0	0	0	40	0	10	0	50	10	10	10	0	0	0	20	40	0	Plant response rating, Barnyardgrass ([1]; 500 g ai/ha): 20; Plant response rating, Ragweed ([2]; 500 g ai/ha): 0; Plant response rating, Ryegrass, Italian ([3]; 500 g ai/ha): 10; Plant response rating, Barnyardgrass ([5]; 500 g ai/ha): 10; Plant response rating, Kochia (kochia (Kochia scoparia) [7]; 500 g ai/ha): 70; Plant response rating, Pigweed ([8]; 500 g ai/ha): 40; Plant response rating, Kochia (kochia (Kochia scoparia) [9]; 500 g ai/ha): 30; Plant response rating, Pigweed ([10]; 500 g ai/ha): 60; Plant response rating, Foxtail, Giant ([11]; 500 g ai/ha): 40; Plant response rating, Corn (corn (Zea mays); 500 g ai/ha): 20; Plant response rating, Ragweed ([12]; 500 g ai/ha): 20; Plant response rating, Blackgrass ([13]; 500 g ai/ha): 20; Plant response rating, Wheat ([14]; 500 g ai/ha): 10; Plant response rating, Ryegrass, Italian ([15]; 500 g ai/ha): 0; Plant response rating, Galium ([16]; 500 g ai/ha): 70; Plant response rating, Foxtail, Giant ([17]; 500 g ai/ha): 100
N#CCCCOc1c(C#N)cccc1Oc1ncc(Cl)cn1 [Compound 22]	0	30	0	0	20	0	90	0	100	90	80	10	20	10	0	20	0	50	90	0	Plant response rating, Barnyardgrass ([1]; 31 g ai/ha): 0; Plant response rating, Ragweed ([2]; 31 g ai/ha): 10; Plant response rating, Ryegrass, Italian ([3]; 31 g ai/ha): 0; Plant response rating, Barnyardgrass ([5]; 31 g ai/ha): 0; Plant response rating, Kochia (kochia (Kochia scoparia) [7]; 31 g ai/ha): 80; Plant response rating, Pigweed ([8]; 31 g ai/ha): 80; Plant response rating, Kochia (kochia (Kochia scoparia) [9]; 31 g ai/ha): 70; Plant response rating, Pigweed ([10]; 31 g ai/ha): 30; Plant response rating, Foxtail, Giant ([11]; 31 g ai/ha): 0; Plant response rating, Corn (corn (Zea mays); 31 g ai/ha): 10; Plant response rating, Ragweed ([12]; 31 g ai/ha): 0; Plant response rating, Blackgrass ([13]; 31 g ai/ha): 0; Plant response rating, Wheat ([14]; 31 g ai/ha): 0; Plant response rating, Ryegrass, Italian ([15]; 31 g ai/ha): 0; Plant response rating, Galium ([16]; 31 g ai/ha): 20; Plant response rating, Foxtail, Giant ([17]; 31 g ai/ha): 0
N#CCCCOc1c(F)cccc1Oc1ncc(Cl)cn1 [Compound 24]	0	0	0	0	20	30	80	0	90	60	40	0	0	10	0	0	0	20	30	0	Plant response rating, Barnyardgrass ([1]; 500 g ai/ha): 50; Plant response rating, Ragweed ([2]; 500 g ai/ha): 70; Plant response rating, Ryegrass, Italian ([3]; 500 g ai/ha): 20; Plant response rating, Barnyardgrass ([5]; 500 g ai/ha): 70; Plant response rating, Kochia (kochia (Kochia scoparia) [7]; 500 g ai/ha): 100; Plant response rating, Pigweed ([8]; 500 g ai/ha): 100; Plant response rating, Kochia (kochia (Kochia scoparia) [9]; 500 g ai/ha): 100; Plant response rating, Pigweed ([10]; 500 g ai/ha): 70; Plant response rating, Foxtail, Giant ([11]; 500 g ai/ha): 30; Plant response rating, Corn (corn (Zea mays); 500 g ai/ha): 10; Plant response rating, Ragweed ([12]; 500 g ai/ha): 50; Plant response rating, Blackgrass ([13]; 500 g ai/ha): 20; Plant response rating, Wheat ([14]; 500 g ai/ha): 0; Plant response rating, Ryegrass, Italian ([15]; 500 g ai/ha): 0; Plant response rating, Galium ([16]; 500 g ai/ha): 80; Plant response rating, Foxtail, Giant ([17]; 500 g ai/ha): 100
